Here are results for one molecule from patent US20060041022A1, “Treatment of amyotrophic lateral sclerosis with nimesulide” (priority 2002, published 2006).

As a reminder, the Kp is the ratio of the level in a tissue or fluid to that in plasma or blood.

Where two headings read alike, the source gives them in different places.

The test system of data set [1] is SOD1 mutant mice. On the procedure:
(§1) Mice Studies were performed on 8 week old female mice overexpressing mutated human superoxide dismutase (codon 93 glycine→alanine G93A (TgN[SOD1-G93A]1Gur(Gurney et al., 1994, Science 264(5166):1772-1775) Jackson Laboratory, Bar Harbor, Me.; “SDO1 mice”) and their wild type littermates. Mice were housed on a 12 hour day/light cycle and (beginning at 45 d of age) allowed ad libitum access to either nimesulide (NMS)-supplemented (19 g/10 kg) chow, delivering ˜[…] per day to the animal, or, as a control, plain NIH-07 formula cold press chow processed into identical ½ inch pellets (Zeigler Bros Inc, Garners, Pa.). Genotyping was conducted at 21 days of age as described in Gurney et al., 1994, Science 264(5166):1772-1775.
(§2) Rotarod and Grid Walking Tests. To assess balance, coordination and muscle strength mice were tested on the accelerating rotarod (7650 Ugo Basile Biol. Res. App., Italy) and grid walking tests. […] For the grid walking test, animals were placed into the distal end of a walled chamber (15 cm W×60 cm L, 20 cm high walls and a wire mesh bottom) suspended 1 meter above the floor. The number of foot misses (entire paw and portion of limb pokes through the wire mesh) while crossing a distance of 60 cm was recorded.

The subject of data set [2] is SOD1 mutant mice. On the procedure: as §1, §2
The source holds these as a separate data set.

The conditions of data set [3]: for effect on weight: SOD1 or wild type mice, nimesulide diet vs normal diet, weighed weekly. On the procedure:
as §1
Health/Neurologic Status. To assess health status mice were weighed weekly and examined for changes in lacrimation/salivation, palpebral closure, ear twitch and pupillary responses, whisker orienting, postural and righting reflexes and Body Condition Score (BCS) (Ullman-Cullere 1999). Finally, a general pathological examination was conducted at time of sacrifice.

A short description of a further data set: in vivo. Conditions: for Kp: female, mouse, brain (cerebral cortex parenchyma) relative to serum, oral. On the procedure:
as §1
(§3) Pathology examination. To evaluate molecular changes during the period of therapeutic efficacy of NMS, a sub group of mice were sacrificed by cervical dislocation 95-105 d of age. Blood, brain and lumbar spinal cord samples were then rapidly harvested and prepared for analysis.
Nimesulide and Prostaglandin E2. […] Prostaglandin-E2 expression in the left caudal hemisphere of the brain (including substantia nigra, and motor cortex) was measured by immuno-assay (Cayman Ann Arbor, Mich.), which was performed as follows. Briefly, pulverized brain tissue stored in liquid N2 was homogenized in 0.1M phosphate-buffered saline (containing 1 mM EDTA and 10 μM indomethacin), mixed with an equal volume of ethanol, and centrifuged. The supernatant was diluted with 50 mM acetic buffer and purified through an affinity column (Cayman). The column was equilibrated with column buffer (0.1M phosphate-buffered saline, 7.7 mM NaN3, 0.5 M […]) followed by UltraPure water, the supernatant was then eluted from the 4 ml column by adding the elution solution and allowing it to pass through the packing material. The eluate was then evaporated and re-dissolved in enzyme-linked immunoassay buffer, applied to a 96-well plate pre-coated with goat anti-mouse IgG and incubated with PGE2 monoclonal antibody and (recovery tracer) for 18 hr at 4° C. […]

The next data set relates to Prostaglandin E2. Conditions: SOD1 (or WT) mice, prophylactic nimesulide in the diet, FIG. 4B. On the procedure: as §1, §3
Nimesulide and Prostaglandin E2. […] Prostaglandin-E2 expression in the left caudal hemisphere of the brain (including substantia nigra, and motor cortex) was measured by immuno-assay (Cayman Ann Arbor, Mich.), which was performed as follows. […]

For data set [4], the system named is 4.8 kDa protein (also 5.3 and 5.7 kDa proteins) in spinal cord of SOD1 mice. On the procedure:
as §1, §3

For data set [5] the following is noted: geriatric patients, periods greater than two years; cited from earlier work.
Where [6] appears, read: SOD1 mice on NMS diet, control diet mean onset at 108 days.

Take `CS(=O)(=O)Nc1ccc([N+](=O)[O-])cc1Oc1ccccc1` [nimesulide, 4-nitro-2-phenoxymethanesulfonanilide]: the “onset of impairment relative to untreated counterparts” value in the data set on SOD1 mutant mice [1] (NMS-treated SOD1 mice, rotarod and grid walking tests) is recorded as “significant delay”. For the same molecule, the “age until which motor skill integrity was exhibited” value is reported as 120 days of age in the data set with SOD1 mutant mice [1] (setting [6]) and 124 days of age in the data set on SOD1 mutant mice [2] (setting [6]). For the same molecule, the “delay in the onset of motor impairment” value in the data set on SOD1 mutant mice [1] (SOD1 mice, nimesulide-supplemented chow vs control diet, n=6, P<0.05, FIG. 1) is 10 days. Moreover, the “motor ability maintained beyond SOD1 mice fed control diet” value in the data set with SOD1 mutant mice [2] (SOD1 mice, nimesulide diet, n=6, P<0.05 on days 113, 115, 122, 124, FIG. 2) worked out at 10 days. For the same molecule, the effect on weight entry is recorded as “No detectable difference” in data set [3] and “no effect” in data set [3] (listed as NMS). Further, the health/neurologic tests entry in data set [3] (all groups, SOD1 groups showed decreased BCS and impaired reflexes after hind limb paralysis) is “unremarkable”. Besides, the “nimesulide concentration in serum” value in “in vivo” (delivery through feeding, 2-3 months treatment, at onset of bilateral hind-limb paralysis, FIG. 4A) is “approximately 30 μM”. Moreover, the figures for the Kp in “in vivo” (TgN[SOD1-G93A]1Gur (SOD1-G93A transgenic)) and in the data set “in vivo” were about 0.1 and 0.1, respectively. Moreover, the PG-E2 content result with Prostaglandin E2 is reported as “decreased”. The “level of approximately 4.8 kDa protein (negatively charged at pH 9) in spinal cord” value in data set [4] (SOD1 mice with NMS treatment, prior to onset of motor impairment, FIGS. 3A and B) is given as “regulated back to control levels”. For the same molecule, the “levels of approximately 5.3 and 5.7 kDa proteins” value in data set [4] (SOD1 mice, lumbar spinal cord, proteins increase with disease progression) is recorded as “decrease”. Further, in data set [5], the tolerability entry was “well tolerated”.
